According to patent US20260007609A1, “METHOD FOR PRODUCING EXTRACELLULAR VESICLES CONTAINING BIOACTIVE SUBSTANCE” (The University of Tokyo, priority 2022, published 2026):
Entries after “also recorded” stand apart in the source; their conditions may differ.

Legend:
Assay type in all cases: cell-based
[1] = system: human mesenchymal stem cells; assay: Nanoparticle tracking analysis (NTA) of culture supernatant of human mesenchymal stem cells
Experimental: (§1) Human mesenchymal stem cells were plated on three 10-cm cell culture dishes at a density of 5,000 to 6,000 cells/cm^2. Six days after initiation of the culture, per dish, the medium was replaced with the EV Production Basal Medium (FUJIFILM-Wako, #053-09451 and #298-84001), to which 10 mL of supplements had been added (wherein a new medium to be replaced comprised an additive compound, as appropriate). After 24 hours of culture under conditions of 5% CO2 and 37° C., the medium was recovered, and was then centrifuged at 2,000×g for 30 minutes at 4° C. to remove the cell debris. Using a Millipore Amicon Ultra 30,000 MWCO filter (Pall, #MAP030C37), the resultant was centrifuged at 4,000×g for 60 minutes at 4° C., so that it was condensed to 1 ml. To the condensed culture supernatant, 500 μL of Total Exosome Isolation Reagent (Invitrogen, #4478359) was added, and the obtained mixture was then incubated overnight, while mixing it by inverting. The solution that had been mixed overnight was centrifuged at 10,000×g for at least 1 hour, and the extracellular vesicles were harvested as a precipitate, which was then resuspended in 30 μL of PBS. The obtained extracellular vesicles were preserved at 4° C. and were then used in experiments within 1 week.
The above-described culture supernatant was diluted with PBS, and was then analyzed using Zetaview Nanoparticle Tracking Analysis Instrument (Particle Metrix, Germany). The collected data were analyzed and diagrammatized using Prism software (Graphpad, ver. 7 and 9.3.1).
First, human mesenchymal stem cells were cultured for 24 hours in a basic medium for EV production (FUJIFILM-Wako) supplemented with supplements in the presence or absence of CID1067700, and NTA was performed using the culture supernatant after removing impurities by centrifugation (FIG. 3). Using ZetaView system capable of counting extracellular vesicles with a large particle diameter such as approximately 1 μm, the measurement was performed at the “highest” mode. […]

NIH3T3 cells [2] = assay: Fluorescence microscopy of extracellular structures containing Shh and Hsp90; settings: 40 μM, 24 hours, vs DMSO
Experimental: (§2) As for light microscopic observation, cells were plated on a 35-mm glass-bottomed dish (Matsunami, Japan, #D11130H) that had been pre-coated with poly-L-lysine (1:1,000, Sigma, #P4707) for 1 hour. Immunofluorescence labelling was performed using the antibodies described above. Briefly, cells were incubated with the primary antibody overnight at 4° C., and with the secondary antibody for 1 hour, followed by washing with PBS three times for 5 minutes for each washing. Thereafter, as mentioned above, using a spinning disc confocal microscope (Yokogawa/ZEISS) or an LSM780 confocal microscope equipped with Airyscan, the cells were observed. Three dimensional reconstruction of the cells was performed using Imaris 8 software (Bitplane).
The morphological characteristics of Shh-EVs mediated by Hsp90 secreted from CID1067700-treated cells were observed. Both Shh-tagRFP and Hsp90-EGFP were transduced into NIH3T3 cells, and the effects obtained by treating the cells with CID1067700 for 24 hours were compared. The cells were fixed the cells and were then photographed by z-stacks, and a three-dimensional model was then constructed. […] Since these structures were observed after the medium was removed and the cells were fixed, they are thought to interact with the cells as intermediate structures in the process of extracellular vesicle release. […]

[3] = system: ShhN-EGFP transduced NIH3T3 fibroblasts; assay: In vitro extracellular vesicle release imaging (Shh-EV tracking)
Experimental: (§3) CID1067700 (#SML0545-5MG) was purchased from Sigma-Aldrich, was solubilized at 40 mM in DMSO, and was added to cells to a final concentration of 40 μM, followed by performing culture for 24 hours. GW4869 (#13127) was purchased from Cayman Chemical, was solubilized at 5 mM in DMSO, and was added to cells to a final concentration of 1.25 μM, followed by performing culture for 24 hours. TAS116 (#HY-15785) was purchased from MedChemExpress, was solubilized at 1 mM in DMSO and was added to cells to a final concentration of 0.5 μM, followed by performing culture for 48 hours.
In order to monitor the Brownian motion of Shh extracellular particles, NIH3T3 cells were plated at 1×10^4 cells/well onto an 8-well LabTek II Chamber #1.5 German Coverglass System pre-coated with poly-L-lysine. On the 3rd day of the culture, an adenoviral Shh-N-EGFP expression vector was introduced into the NIH3T3 cells. […] Twenty-four hours after the medium replacement, time-lapse imaging was performed using a spinning disc microscope (Yokogawa/ZEISS) according to the previous report (Tanaka et al., Neuron 90, 1215-1229, 2016) under conditions of 5% CO2 and 37° C. at intervals of 5 seconds. Shh extracellular vesicles with Brownian motion were identified using Imaris 8 software (Bitplane) and were then quantified.
Extracellular vesicles with a large particle diameter, which contain Shh, were visualized by live cell imaging in ShhN-EGFP transduced NIH3T3 fibroblasts treated with CID1067700 (FIG. 5).
These particles were automatically tracked and were identified as extracellular vesicles released from cells under drug (CID1067700, GW4869, or TSA116) addition conditions (FIGS. 5B to 5I). […] However, this increase in the released amount of Shh-EVs due to the CID1067700 treatment disappeared, when the cells were treated with […] TSA116 (Hsp90 inhibitor) for 48 hours or with 1.25 μM GW4869 (nSMase2 inhibitor) for 24 hours (FIG. 5J).

[4] = system: human mesenchymal stem cells; assay: Immunoblotting of extracellular vesicle fraction from culture supernatant of treated human mesenchymal stem cells; settings: 40 μM, 24 hours, compared to DMSO
Experimental: as §3, §1
Immunoblotting was performed according to the previous report (Yin et al., Neuron 70, 310-325, 2011). […] The bands were detected using an ImageQuant LAS 4000 mini system (GE Healthcare Life Sciences, USA) and were then quantified using ImageJ software. […]

[5] = system: human mesenchymal stem cells; assay: Transmission electron microscopy of hMSC-EV pellets; settings: TEM histogram of particle sizes larger than 100 nm, vs DMSO
Experimental: Observation by transmission electron microscopy (TEM) was performed according to previously reported standard methods (Nonaka et al., Cell 95, 829-837, 1998; Takei et al., The Journal of cell biology 131, 1789-1800, 1995). A precipitate of extracellular vesicles was fixed in Half Kalnovsky fixative at 37° C. for 10 min and then at 4° C. overnight, followed by post-fixation with 1% OsO4 (in 0.1 M cacodylate buffer (pH 7.4)) on ice for 1.5 hours. Thereafter, the sample was subjected to electron staining with 1% uranyl acetate for 1 hour, and was then dehydrated using a graded ethanol series. Finally, the dehydrated extracellular vesicle sample was embedded in Quetol-812 (Nisshin EM), was then cut into ultrathin sections, was then electron-stained with uranyl acetate and lead citrate, and was then observed using a JEM2000 microscope at 100 keV, or using a JEM-1400Flash microscope at 80 keV. Next, the extracellular vesicle pellets were observed using TEM (FIG. 4). In addition to conventionally known small (approximately 100 nm in diameter) exosome-like particles, particles with a low electron density (bright) and a diameter of larger than 800 nm were contained in the extracellular vesicle fraction derived from human mesenchymal stem cells treated with CID1067700, and the particles tended to be surrounded with a lipid double layer (FIGS. 4A and 4B).

NIH3T3 cells [6] = assay: Immunostaining of ceramide
Experimental: as §2
In order to investigate whether nSMase2 activity is influenced by the CID1067700 treatment, NIH3T3 cells were treated with CID1067700 and/or GW4869, and immunostaining of ceramide was then performed (FIG. 6).

[7] = culture supernatant, 24 hours treatment, n=4

What does the source list for `CC1(C)Cc2c(sc(NC(=S)NC(=O)c3ccccc3)c2C(=O)O)CO1` [CID1067700, 2-(benzoylcarbamothioylamino)-5,5-dimethyl-4,7-dihydrothieno[2,3-c]pyran-3-carboxylic acid]?
extracellular vesicles with a diameter of 100 to 800 nm per ml [1, 7]: 3.2±1.9×10^8 particles/ml; extracellular vesicles with a diameter of larger than 800 nm [1, 7]: 6.6±2.2×10^7 particles/ml; number of extracellular vesicles with a particle diameter of greater than 800 nm ([1]; result in words, vs DMSO alone): significantly increased; cells with extracellular structures containing Hsp90 and Shh (NIH3T3 cells [2]): significantly increased; number of Shh-EVs ([3]; 24 hours of treatment, compared to control (DMSO treatment)): significantly increased; amount of Shh in the extracellular vesicles released from the cells [4]: significantly elevated; amount of the general exosome marker Hsp90 in extracellular vesicles [4]: largely unaltered; amount of the general exosome marker TSG101 in extracellular vesicles [4]: largely unaltered; number of large-size extracellular vesicles [5]: significantly increased; expression level of ceramide in the cytoplasm (NIH3T3 cells [6]; 24 hours of treatment (40 μM), compared to DMSO alone): significantly increased

`O=C(/C=C/c1ccc(/C=C/C(=O)Nc2ccc(C3=NCCN3)cc2)cc1)Nc1ccc(C2=NCCN2)cc1` [GW4869] was tested. Which “increase in the released amount of Shh-EVs due to the CID1067700 treatment” value ([3]; co-treatment with 1.25 μM GW4869 for 24 hours) did it give?
The value was “disappeared”.

And the “increase in the expression level of ceramide caused by CID1067700” value (NIH3T3 cells [6]; simultaneous treatment with GW4869 (2.5 μM), 24 hours)?
The value was “significantly suppressed; also recorded: offset”.

For `CCc1cc(C(N)=O)ccc1-n1nc(C(C)C)c2c(-n3cnc(-c4cnn(C)c4)c3)ccnc21` [TSA116], which “increase in the released amount of Shh-EVs due to the CID1067700 treatment” value ([3]; co-treatment with 5 μM TSA116 for 48 hours) is on record?
The value was “disappeared”.
